Patent EP0603240B1, “SAFENING HERBICIDAL PYRAZOLYLSULFONYLUREAS” (priority 1991, dated 1993)

How the values were obtained:
Assay type in all cases: in vivo
corn [1] = assay: Example 7, Procedure II: Herbicide No. 1 + metolachlor (No. 12) with antidotes
In short: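 Herbicide plus antidote, applied in acetone, mixed into silt loam top soil used to cover corn seed beds, with untreated and herbicide-only controls. After incorporation, containers got overhead irrigation equal to 0.6 cm rainfall, then sub-irrigation in greenhouse. Percent injury scored; antidote efficacy is injury difference; duplicate averages.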

[2] = tested on: barnyardgrass (Echinochloa crusgalli); assay: Example 8, Procedure II: Herbicide No. 1 + butachlor (No. 9) with antidotes
Procedure: (§1) Containers were filled and compacted with a fumigated silt loam top soil to a depth of about 1.3 cm from the top of the container. A first container was designated as an untreated control, a second container was designated as a herbicide control, and a third container was designated as a herbicide + antidote test container. Each of the containers was seeded with a crop species. A measured amount of herbicide dispersed or dissolved in acetone was applied to a measured quantity of soil. To this same quantity of soil treated with herbicide, there was added a measured amount of antidote dispersed or dissolved in acetone. The quantity of soil treated with the herbicide and antidote was thoroughly mixed to incorporate the herbicide and antidote in the soil uniformly. The seed bed in the third container of soil was covered with the soil treated with the herbicide and antidote and the container was leveled. For each test series, the seed beds of the first and second containers were likewise covered by soil layers. the cover layer of the first container was not treated with herbicide or antidote.
(§2) The containers were then placed on a bench in a greenhouse and sub-irrigated as required for the duration of the test. […] Plant response is measured in terms of percent injury. Antidote efficacy is indicated as the difference in plant injury by the herbicide(s) without the antidote and with the antidote.
(§3) This procedure is the same as Procedure I, but modified in the manner that after incorporation of the chemicals (herbicide and antidote) the containers with the covered seedbed were treated with an initial overhead irrigation equivalent to 0.6 cm rainfall, then subsequently sub-irrigated as required on greenhouse benches.
(§4) In the series of greenhouse tests described below, for routine screening purposes the herbicide/antidote compositions were tested in crop/weed combinations involving corn as the crop and either or both of the weeds barnyardgrass (Echinochloa crusgalli), a monocotyledonous weed, and velvetleaf (Abutilon theophrasti), a dicotyledonous weed. In the tables below, these weeds are indicated by the symbols "BYG" and "VL", respectively.
(§5) In this test, the efficacy of the same five antidotes used in Examples 6 and 7 was investigated in compositions comprising Herbicide No. 1 and as a co-herbicide, butachlor (Herbicide No. 9), active ingredient in MACHETE® herbicide, a leading commercial rice herbicide. The test procedure used in this example was the same as that in Examples 6 and 7.

[3] = tested on: velvetleaf (Abutilon theophrasti); assay: as above
Procedure: as §1, §2, §3, §4, §5

corn [4] = assay: Example 10, Procedure II: Herbicide No. 1 + propachlor (No. 5) with antidotes
Procedure: as §1, §2, §3
In this test, the safening effect of various antidotes on the herbicidal combination of Herbicide No. 1 and another α-chloroacetanilide co-herbicide, propachlor, (Herbicide No. 5) was investigated. Propachlor is the active ingredient in the commercial herbicide RAMROD®. Procedure II was also used in this test as in the preceding example.

corn [5] = assay: Example 9, Procedure II: Herbicide No. 1 + pretilachlor (No. 13) with antidotes
Procedure: as §1, §2, §3
In this example the safening effect on a composition comprising Herbicide No. 1 and another leading rice herbicide, i.e., Herbicide No. 13, was investigated using the same antidotes and test procedure described in the preceding example. Herbicide No. 13 is pretilachlor, active ingredient used in the commercial rice herbicides RIFIT®, SOFIT® and SOFIT® SUPER.

[6] = tested on: barnyardgrass (Echinochloa crusgalli); assay: Example 21, Procedure II: Herbicide No. 1 + SUTAN PLUS (butylate + antidote) with antidotes
Procedure: as §1, §2, §3, §4
(§6) In this example, tests were conducted as in the preceding Examples 18-20, except here the co-herbicidal component was SUTAN® PLUS, a commercial product comprising as the active herbicidal ingredient the compound butylate (Herbicide No. 10) and an antidote […] (Antidote No. 1). Again, the antidotal compounds herein were Nos. 1, 2, 7, 13 and 15. Procedure II was used.

[7] = tested on: velvetleaf (Abutilon theophrasti); assay: as above
Procedure: as §1, §2, §3, §4, §6

[8] = tested on: barnyardgrass (Echinochloa crusgalli); assay: Example 6, Procedure II: Herbicide No. 1 + alachlor (No. 7) with antidotes
Procedure: as §1, §2, §3, §4
(§7) This example was designed to investigate the antidotal efficacy of a plurality of antidotal compounds against a composition comprising Herbicide No. 1 in combination with Herbicide No. 7 (alachlor). The antidotal compounds used herein were Nos. 1, 2, 7, 13 and 15.
(§8) In this example, Procedure II described above was followed. The data from the tests in this example is shown in Table 6 and represents averages of duplicate replications.

[9] = tested on: velvetleaf (Abutilon theophrasti); assay: as above
Procedure: as §1, §2, §3, §4, §7, §8

corn [10] = assay: Example 21, Procedure II: Herbicide No. 1 + SUTAN PLUS (butylate + antidote) with antidotes
Procedure: as §1, §2, §3, §6

corn [11] = assay: Example 11, Procedure II: Herbicide No. 1 + metazachlor (No. 14) with antidotes
Procedure: as §1, §2, §3
In this example, yet another α-chloroacetanilide co-herbicide, metazachlor (Herbicide No. 14) was combined with Herbicide No. 1 for investigation of the effect of various safeners on that composition. Metazachlor is the active ingredient in the commercial herbicide BUTISAN® S, used here as a 500 g/L formulation.

[12] = Herbicide No.1 0.14 + No.12 3.36 kg/ha + antidote 2.24 kg/ha
[13] = Herbicide No.1 0.14 + No.12 3.36 kg/ha + antidote 8.96 kg/ha
[14] = Herbicide No.1 0.56 + No.12 3.36 kg/ha + antidote 2.24 kg/ha
[15] = Herbicide No.1 0.56 + No.12 3.36 kg/ha + antidote 8.96 kg/ha
[16] = Herbicide No.1 0.14 + No.9 2.24 kg/ha + antidote 2.24 kg/ha
[17] = Herbicide No.1 0.14 + No.9 2.24 kg/ha + antidote 8.96 kg/ha
[18] = Herbicide No.1 0.56 + No.9 2.24 kg/ha + antidote 2.24 kg/ha
[19] = Herbicide No.1 0.56 + No.9 2.24 kg/ha + antidote 8.96 kg/ha
[20] = Herbicide No.1 0.14 kg/ha + Herbicide No.5 4.48 kg/ha, antidote rate 2.24 kg/ha
[21] = Herbicide No.1 0.14 kg/ha + Herbicide No.5 4.48 kg/ha, antidote rate 8.96 kg/ha
[22] = Herbicide No.1 0.56 kg/ha + Herbicide No.5 4.48 kg/ha, antidote rate 2.24 kg/ha
[23] = Herbicide No.1 0.56 kg/ha + Herbicide No.5 4.48 kg/ha, antidote rate 8.96 kg/ha
[24] = Herbicide No.1 0.14 kg/ha + Herbicide No.13 2.24 kg/ha, antidote rate 2.24 kg/ha
[25] = Herbicide No.1 0.14 kg/ha + Herbicide No.13 2.24 kg/ha, antidote rate 8.96 kg/ha
[26] = Herbicide No.1 0.56 kg/ha + Herbicide No.13 2.24 kg/ha, antidote rate 2.24 kg/ha
[27] = Herbicide No.1 0.56 kg/ha + Herbicide No.13 2.24 kg/ha, antidote rate 8.96 kg/ha
[28] = Herbicide No.1 0.56 kg/ha + SUTAN + 8.96 kg/ha, antidote 2.24 kg/ha
[29] = Herbicide No.1 0.56 kg/ha + SUTAN + 8.96 kg/ha, antidote 8.96 kg/ha
[30] = Herbicide No.1 1.12 kg/ha + SUTAN + 8.96 kg/ha, antidote 2.24 kg/ha
[31] = Herbicide No.1 1.12 kg/ha + SUTAN + 8.96 kg/ha, antidote 8.96 kg/ha
[32] = Herbicide No.1 0.14 + No.7 4.48 kg/ha + antidote 2.24 kg/ha
[33] = Herbicide No.1 0.14 + No.7 4.48 kg/ha + antidote 8.96 kg/ha
[34] = Herbicide No.1 0.56 + No.7 4.48 kg/ha + antidote 2.24 kg/ha
[35] = Herbicide No.1 0.56 + No.7 4.48 kg/ha + antidote 8.96 kg/ha
[36] = Herbicide No.1 0.56 kg/ha + Herbicide No.14 3.36 kg/ha, antidote rate 2.24 kg/ha
[37] = Herbicide No.1 0.56 kg/ha + Herbicide No.14 3.36 kg/ha, antidote rate 8.96 kg/ha
[38] = Herbicide No.1 1.12 kg/ha + Herbicide No.14 3.36 kg/ha, antidote rate 2.24 kg/ha
[39] = Herbicide No.1 1.12 kg/ha + Herbicide No.14 3.36 kg/ha, antidote rate 8.96 kg/ha

## CC1(C(Cl)Cl)OCCO1 [compound 13]
Corn [1]; [12]
  % Injury Corn: 0%
Corn [1]; [13]
  % Injury Corn: 0%
Corn [1]; [14]
  % Injury Corn: 10%
Corn [1]; [15]
  % Injury Corn: 10%
[2]; [16]
  % Injury BYG: 99%
[2]; [17]
  % Injury BYG: 99%
[2]; [18]
  % Injury BYG: 99%
[2]; [19]
  % Injury BYG: 100%
[3]; [16]
  % Injury VL: 75%
[3]; [17]
  % Injury VL: 80%
[3]; [18]
  % Injury VL: 85%
[3]; [19]
  % Injury VL: 85%
Corn [4]; [20]
  % Injury Corn: 0%
Corn [4]; [21]
  % Injury Corn: 15%
Corn [4]; [22]
  % Injury Corn: 45%
Corn [4]; [23]
  % Injury Corn: 10%
Corn [5]; [24]
  % Injury Corn: 10%
Corn [5]; [25]
  % Injury Corn: 0%
Corn [5]; [26]
  % Injury Corn: 25%
Corn [5]; [27]
  % Injury Corn: 20%
[6]; [28]
  % Injury BYG: 40%
[6]; [29]
  % Injury BYG: 50%
[6]; [30]
  % Injury BYG: 70%
[6]; [31]
  % Injury BYG: 70%
[7]; [28]
  % Injury VL: 55%
[7]; [29]
  % Injury VL: 40%
[7]; [30]
  % Injury VL: 70%
[7]; [31]
  % Injury VL: 70%
[8]; [32]
  % Injury BYG: 100%
[8]; [33]
  % Injury BYG: 100%
[8]; [34]
  % Injury BYG: 100%
[8]; [35]
  % Injury BYG: 100%
[9]; [32]
  % Injury VL: 75%
[9]; [33]
  % Injury VL: 65%
[9]; [34]
  % Injury VL: 90%
[9]; [35]
  % Injury VL: 90%
Corn [10]; [28]
  % Injury Corn: 0%
Corn [10]; [29]
  % Injury Corn: 10%
Corn [10]; [30]
  % Injury Corn: 5%
Corn [10]; [31]
  % Injury Corn: 10%
Corn [11]; [36]
  % Injury Corn: 75%
Corn [11]; [37]
  % Injury Corn: 40%
Corn [11]; [38]
  % Injury Corn: 60%
Corn [11]; [39]
  % Injury Corn: 70%

## C=CCN(CC=C)C(=O)C(Cl)Cl [compound 1]
Corn [1]; [12]
  % Injury Corn: 0%
Corn [1]; [13]
  % Injury Corn: 0%
Corn [1]; [14]
  % Injury Corn: 0%
Corn [1]; [15]
  % Injury Corn: 10%
[2]; [16]
  % Injury BYG: 99%
[2]; [17]
  % Injury BYG: 99%
[2]; [18]
  % Injury BYG: 98%
[2]; [19]
  % Injury BYG: 99%
[3]; [16]
  % Injury VL: 70%
[3]; [17]
  % Injury VL: 70%
[3]; [18]
  % Injury VL: 85%
[3]; [19]
  % Injury VL: 80%
Corn [4]; [20]
  % Injury Corn: 10%
Corn [4]; [21]
  % Injury Corn: 0%
Corn [4]; [22]
  % Injury Corn: 15%
Corn [4]; [23]
  % Injury Corn: 0%
Corn [5]; [24]
  % Injury Corn: 0%
Corn [5]; [25]
  % Injury Corn: 0%
Corn [5]; [26]
  % Injury Corn: 5%
Corn [5]; [27]
  % Injury Corn: 10%
[6]; [28]
  % Injury BYG: 0%
[6]; [29]
  % Injury BYG: 25%
[6]; [30]
  % Injury BYG: 10%
[6]; [31]
  % Injury BYG: 35%
[7]; [28]
  % Injury VL: 40%
[7]; [29]
  % Injury VL: 65%
[7]; [30]
  % Injury VL: 65%
[7]; [31]
  % Injury VL: 60%
[8]; [32]
  % Injury BYG: 100%
[8]; [33]
  % Injury BYG: 100%
[8]; [34]
  % Injury BYG: 100%
[8]; [35]
  % Injury BYG: 100%
[9]; [32]
  % Injury VL: 75%
[9]; [33]
  % Injury VL: 80%
[9]; [34]
  % Injury VL: 80%
[9]; [35]
  % Injury VL: 85%
Corn [10]; [28]
  % Injury Corn: 15%
Corn [10]; [29]
  % Injury Corn: 15%
Corn [10]; [30]
  % Injury Corn: 30%
Corn [10]; [31]
  % Injury Corn: 20%
Corn [11]; [36]
  % Injury Corn: 25%
Corn [11]; [37]
  % Injury Corn: 50%
Corn [11]; [38]
  % Injury Corn: 45%
Corn [11]; [39]
  % Injury Corn: 50%
